Measurements taken from PubChem BioAssay (NCI).
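1) Cells in 96-well plates. 2) Compound, 48 h, 5 concentrations. 3) Linear interpolation between surrounding doses. 4) Unreached endpoint = highest concentration. TGI is the concentration that stops growth completely.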

Key:
Test in all cases: NCI-60 cell line screen, 48 h
[1] = tested on: 786-0 renal
[2] = tested on: A498 renal
[3] = tested on: A549 NSCLC
[4] = tested on: ACHN renal
[5] = tested on: CAKI-1 renal
[6] = tested on: COLO 205 colon
[7] = tested on: DLD-1 colon
[8] = tested on: DMS 114 small cell lung
[9] = tested on: DMS 273 small cell lung
[10] = tested on: EKVX NSCLC
[11] = tested on: HCC-2998 colon
[12] = tested on: HCT-116 colon
[13] = tested on: HCT-15 colon
[14] = tested on: HL-60(TB) leukemia
[15] = tested on: HOP-18 NSCLC
[16] = tested on: HOP-62 NSCLC
[17] = tested on: HOP-92 NSCLC
[18] = tested on: HT29 colon
[19] = tested on: IGROV1 ovarian
[20] = tested on: K-562 leukemia
[21] = tested on: KM12 colon
[22] = tested on: KM20L2 colon
[23] = tested on: LXFL 529 NSCLC
[24] = tested on: M14 melanoma
[25] = tested on: M19-MEL melanoma
[26] = tested on: MALME-3M melanoma
[27] = tested on: MOLT-4 leukemia
[28] = tested on: NCI-H226 lung
[29] = tested on: NCI-H23 lung
[30] = tested on: NCI-H460 lung
[31] = tested on: NCI-H522 lung
[32] = tested on: OVCAR-3 ovarian
[33] = tested on: OVCAR-4 ovarian
[34] = tested on: OVCAR-5 ovarian
[35] = tested on: OVCAR-8 ovarian
[36] = tested on: RPMI-8226 leukemia
[37] = tested on: RXF 393 renal
[38] = tested on: RXF-631 renal
[39] = tested on: SF-268 CNS
[40] = tested on: SF-295 CNS
[41] = tested on: SF-539 CNS
[42] = tested on: SK-MEL-2 melanoma
[43] = tested on: SK-MEL-5 melanoma
[44] = tested on: SK-OV-3 ovarian
[45] = tested on: SN12C renal
[46] = tested on: SNB-19 CNS
[47] = tested on: SNB-75 CNS
[48] = tested on: SNB-78 CNS
[49] = tested on: SR leukemia
[50] = tested on: SW-620 colon
[51] = tested on: TK-10 renal
[52] = tested on: U251 CNS
[53] = tested on: UACC-257 melanoma
[54] = tested on: UACC-62 melanoma
[55] = tested on: UO-31 renal
[56] = tested on: XF 498 CNS
[57] = tested on: BT-549 breast
[58] = tested on: CCRF-CEM leukemia
[59] = tested on: DU-145 prostate
[60] = tested on: HS 578T breast
[61] = tested on: LOX IMVI melanoma
[62] = tested on: MCF7 breast
[63] = tested on: MDA-MB-231 breast
[64] = tested on: MDA-MB-435
[65] = tested on: MDA-N
[66] = tested on: NCI/ADR-RES ovarian
[67] = tested on: PC-3 prostate
[68] = tested on: SK-MEL-28 melanoma

## Cn1c(N)nc(=O)c2c1N(C1OC(CO)C(O)C1O)CN2Cc1ccccc1 (stereo not drawn)
[1]
  TGI: > 100 µM
[2]
  TGI: > 100 µM
[3]
  TGI: > 100 µM
[4]
  TGI: > 100 µM
[5]
  TGI: > 100 µM
[6]
  TGI: > 100 µM
[7]
  TGI: > 100 µM
[8]
  TGI: > 100 µM
[9]
  TGI: > 100 µM
[10]
  TGI: > 100 µM
[11]
  TGI: > 100 µM
[12]
  TGI: > 100 µM
[13]
  TGI: > 100 µM
[14]
  TGI: > 100 µM
[15]
  TGI: > 100 µM
[16]
  TGI: > 100 µM
[17]
  TGI: > 100 µM
[18]
  TGI: > 100 µM
[19]
  TGI: > 100 µM
[20]
  TGI: > 100 µM
[21]
  TGI: > 100 µM
[22]
  TGI: > 100 µM
[23]
  TGI: > 100 µM
[24]
  TGI: > 100 µM
[25]
  TGI: > 100 µM
[26]
  TGI: > 100 µM
[27]
  TGI: > 100 µM
[28]
  TGI: > 100 µM
[29]
  TGI: > 100 µM
[30]
  TGI: > 100 µM
[31]
  TGI: > 100 µM
[32]
  TGI: > 100 µM
[33]
  TGI: > 100 µM
[34]
  TGI: > 100 µM
[35]
  TGI: > 100 µM
[36]
  TGI: > 100 µM
[37]
  TGI: > 100 µM
[38]
  TGI: > 100 µM
[39]
  TGI: > 100 µM
[40]
  TGI: > 100 µM
[41]
  TGI: > 100 µM
[42]
  TGI: > 100 µM
[43]
  TGI: > 100 µM
[44]
  TGI: > 100 µM
[45]
  TGI: > 100 µM
[46]
  TGI: > 100 µM
[47]
  TGI: > 100 µM
[48]
  TGI: > 100 µM
[49]
  TGI: > 100 µM
[50]
  TGI: > 100 µM
[51]
  TGI: > 100 µM
[52]
  TGI: > 100 µM
[53]
  TGI: > 100 µM
[54]
  TGI: > 100 µM
[55]
  TGI: > 100 µM
[56]
  TGI: > 100 µM

## CC1=C(/C=C/C(C)=C/C=C/C(C)=C/C(=O)O)C(C)(C)CCC1
[1]
  TGI: 68.1 µM
[2]
  TGI: > 91.1 µM
[3]
  TGI: > 79.4 µM
[4]
  TGI: 75.9 µM
[57]
  TGI: 63 µM
[5]
  TGI: > 93.2 µM
[58]
  TGI: 70.8 µM
[6]
  TGI: 63.6 µM
[7]
  TGI: > 100 µM
[8]
  TGI: > 100 µM
[9]
  TGI: > 100 µM
[59]
  TGI: > 100 µM
[10]
  TGI: > 100 µM
[11]
  TGI: 66.8 µM
[12]
  TGI: 64.2 µM
[13]
  TGI: 70.3 µM
[14]
  TGI: 59.3 µM
[15]
  TGI: > 100 µM
[16]
  TGI: 66 µM
[17]
  TGI: > 83.4 µM
[60]
  TGI: > 81 µM
[18]
  TGI: 68.3 µM
[19]
  TGI: > 100 µM
[20]
  TGI: > 79.9 µM
[21]
  TGI: 60.2 µM
[22]
  TGI: > 100 µM
[61]
  TGI: 52.6 µM
[23]
  TGI: > 100 µM
[24]
  TGI: 71.5 µM
[25]
  TGI: > 100 µM
[26]
  TGI: > 75.6 µM
[62]
  TGI: > 77.9 µM
[63]
  TGI: 99.6 µM
[64]
  TGI: > 100 µM
[65]
  TGI: > 100 µM
[27]
  TGI: 69.1 µM
[28]
  TGI: 72.6 µM
[29]
  TGI: 79.3 µM
[30]
  TGI: 70.5 µM
[31]
  TGI: > 83.7 µM
[66]
  TGI: 70 µM
[32]
  TGI: 63.9 µM
[33]
  TGI: > 100 µM
[34]
  TGI: > 85.4 µM
[35]
  TGI: > 77.9 µM
[67]
  TGI: > 100 µM
[36]
  TGI: 57.7 µM
[37]
  TGI: > 81.5 µM
[39]
  TGI: > 75.1 µM
[40]
  TGI: > 88.6 µM
[41]
  TGI: 75.7 µM
[42]
  TGI: 48.8 µM
[68]
  TGI: > 82.2 µM
[43]
  TGI: 63.3 µM
[44]
  TGI: > 100 µM
[45]
  TGI: 72.1 µM
[46]
  TGI: > 84.6 µM
[47]
  TGI: > 100 µM
[49]
  TGI: > 87.4 µM
[50]
  TGI: 64.2 µM
[51]
  TGI: > 100 µM
[52]
  TGI: 70.7 µM
[53]
  TGI: 99.7 µM
[54]
  TGI: > 77.4 µM
[55]
  TGI: > 74.7 µM
[56]
  TGI: > 100 µM

## COc1ccc(NC(=O)C(C)Oc2ccc(OCC3CCCCC3)cc2)cc1 (stereo not drawn)
[1]
  TGI: > 100 µM
[2]
  TGI: > 100 µM
[3]
  TGI: > 100 µM
[4]
  TGI: > 100 µM
[58]
  TGI: > 100 µM
[7]
  TGI: > 100 µM
[8]
  TGI: > 100 µM
[9]
  TGI: > 100 µM
[11]
  TGI: > 100 µM
[12]
  TGI: > 100 µM
[13]
  TGI: > 100 µM
[14]
  TGI: > 100 µM
[18]
  TGI: > 100 µM
[19]
  TGI: > 100 µM
[20]
  TGI: > 100 µM
[21]
  TGI: > 100 µM
[61]
  TGI: > 100 µM
[23]
  TGI: > 100 µM
[24]
  TGI: > 100 µM
[25]
  TGI: > 100 µM
[26]
  TGI: > 100 µM
[27]
  TGI: > 100 µM
[28]
  TGI: > 100 µM
[29]
  TGI: 68.3 µM
[30]
  TGI: > 100 µM
[31]
  TGI: > 100 µM
[32]
  TGI: > 100 µM
[33]
  TGI: > 100 µM
[35]
  TGI: > 100 µM
[37]
  TGI: > 100 µM
[39]
  TGI: > 100 µM
[41]
  TGI: > 100 µM
[42]
  TGI: > 100 µM
[68]
  TGI: > 100 µM
[43]
  TGI: > 100 µM
[44]
  TGI: > 100 µM
[45]
  TGI: > 100 µM
[46]
  TGI: > 100 µM
[47]
  TGI: > 100 µM
[48]
  TGI: > 100 µM
[51]
  TGI: > 100 µM
[52]
  TGI: > 100 µM
[53]
  TGI: > 100 µM
[54]
  TGI: > 100 µM
[55]
  TGI: > 100 µM
[56]
  TGI: > 100 µM
